Data: patent publication EP2266622A2, “Prodrugs containing novel bio-cleavable linkers” (Piramal Life Sciences Limited, priority 2004, dated 2006)
“Also recorded” adds a separate entry of the source. Marks after values point to notes of the source that are not given here.

Experiments:
[1] = tested on: Neurological toxicity; assay: Test 2: neurological toxicity, rats p.o.; type: in vivo; settings: 30 mg/kg
Source text: (§1) Rats received test compounds orally.

[2] = tested on: MES-induced seizures; assay: Test 2: MES, rats p.o.; type: in vivo
Source text: (§2) Maximal Electroshock Test (MES): The MES is a model for generalized tonic-clonic seizure and provides an indication of a compound's ability to prevent seizure spread when all neuronal circuits in the brain are maximally active. These seizures are highly reproducible and electro-physiologically consistent with human seizures. For all tests based on MES convulsions, 60 Hz of alternating current (50 mA in mice) is delivered for […] by corneal electrodes, which have been primed with an electrolyte solution containing an anesthetic agent (0.5% tetracaine hydrochloride). Mice were tested at various intervals following doses of 30, 100 and 300 mg/kg of test compound given by i.p. injection of a volume of 0.01 mL/g. Other doses can be used if indicated by previously known pharmacology. An animal is considered "protected" from MES-induced seizures upon abolition of the hind-limb tonic extensor component of the seizure.
as §1

[3] = tested on: clonic seizures; assay: Test 1: Subcutaneous Metrazol Seizure Threshold Test (scMET), mice i.p.; type: in vivo; settings: for ScMET: class symbol = dose; for ScMET (number of animal protected/number of animal tested): 300 mg/kg (+)
Experimental: (§3) Most of the prodrugs and mutual prodrugs of anticonvulsants described in this invention were evaluated at National Institute of Neurological Disorders and Stroke (NINDS), National Institute of Health (NIH), under their Antiepileptic Screening Program (ASP).
(§4) Test 1 is an initial screening for anticonvulsant activity in the Maximal Electroshock Test (MES) and Subcutaneous Metrazol Seizure Threshold Test (scMET) models combined with an initial assessment of toxicity (TOX) in mice via i.p. injection (see further explanation below). The data for each condition is presented as N/F, where N = number of animals protected from seizure and F = number of animals tested. For test of toxicity, N = number of animals displaying toxic effects and F = number of animals tested. Any deaths occurring during the test were recorded.
Subcutaneous Metrazol Seizure Threshold Test (scMET): Subcutaneous injection of the convulsant metrazol produces clonic seizures in laboratory animals. […] Animals were pretreated with various doses of the test compound given by i.p. injection. At the previously determined Time to Peak Effect (TPE) of the test compound, the dose of metrazol which will produce convulsions in 97% of animals (CD97: 85 mg/kg in mice) was injected into a loose fold of skin in the midline of the neck. The animals were placed in isolation cages to minimize stress and observed for the next 30 minutes for the presence or absence of a seizure. An episode of clonic spasms, approximately […], of the fore and/or hind limbs, jaws, or vibrissae is taken as the end point.

[4] = tested on: minimal muscular or neurological impairment; assay: Test 1: Acute toxicity, minimal motor impairment (rotorod), mice i.p.; type: in vivo; settings: for Rotorod Toxicity (number of animals exhibiting toxicity/number of animals tested): 300 mg/kg (+); for Rotorod Toxicity: class symbol = dose
Experimental: as §3, §4

[5] = tested on: MES-induced seizures; assay: Test 1: Maximal Electroshock Test (MES), mice i.p.; type: in vivo; settings: for MES: class symbol = dose
Experimental: as §3, §4, §2

[6] = tested on: mucosal damage
[7] = 100 mg/kg (++), 2 hours after dosing
[8] = at 2 hours after dosing (footnote h)

SMILES | MES (number of animal protected/number of animal tested) ([2]; 30 mg/kg, 0.50 h) | MES (number of animal protected/number of animal tested) ([2]; 30 mg/kg, 1.00 h) | MES (number of animal protected/number of animal tested) ([2]; 30 mg/kg, 2.00 h) | MES (number of animal protected/number of animal tested) ([2]; 30 mg/kg, 4.00 h) | ScMET ([3]; 0.5 h) | ScMET ([3]; 4.0 h) | toxicity (Test 1, in words) [4] | Rotorod Toxicity (number of animals exhibiting toxicity/number of animals tested) ([4]; 0.5 h) | Rotorod Toxicity ([4]; 4.0 h) | activity in MES (Test 1, in words) [5] | MES (number of animal protected/number of animal tested) ([5]; 100 mg/kg (++), 4.0 h) | MES (number of animal protected/number of animal tested) ([5]; 300 mg/kg (+), 0.5 h) | MES (number of animal protected/number of animal tested) ([5]; 300 mg/kg (+), 4.0 h) | Rotorod Toxicity ([4]; 0.5 h) | MES ([5]; 0.5 h) | MES ([5]; 4.0 h) | also measured
Nc1nc(NC(=O)OCCSSCCOC(=O)NCC2(CC(=O)O)CCCCC2)nnc1-c1cccc(Cl)c1Cl [I-AA-MPD11] | 0/4 | 2/4 | 1/4 | 4/4 | - (- = no activity or no toxicity at 300 mg/kg) | - (- = no activity or no toxicity at 300 mg/kg) | no or mild toxicity | 1/4 | - (- = no activity or no toxicity at 300 mg/kg) | active in MES | 3/3 | 1/1 | 1/1 |  |  |  | Toxicity (number of animals exhibiting toxicity/number of animals tested) ([1]; 0.50 h): 0/4; Toxicity (number of animals exhibiting toxicity/number of animals tested) ([1]; 1.00 h): 0/4; Toxicity (number of animals exhibiting toxicity/number of animals tested) ([1]; 2.00 h): 0/4; Toxicity (number of animals exhibiting toxicity/number of animals tested) ([1]; 4.00 h): 0/4
CCCC(CCC)C(=O)OCCSSCCOC(=O)Nc1nnc(-c2cccc(Cl)c2Cl)c(N)n1 [I-CA-MPD23] |  |  |  |  | - (- = no activity or no toxicity at 300 mg/kg) | - (- = no activity or no toxicity at 300 mg/kg) | no or mild toxicity |  | - (- = no activity or no toxicity at 300 mg/kg) | active in MES |  |  | 1/3 | - (- = no activity or no toxicity at 300 mg/kg) | - (- = no activity or no toxicity at 300 mg/kg) | + (+ = activity or toxicity at 300 mg/kg) | MES (number of animal protected/number of animal tested) ([2]; 150 mg/kg, 2.00 h): 4/4; MES (number of animal protected/number of animal tested) ([2]; 150 mg/kg, 4.00 h): 4/4; MES (number of animal protected/number of animal tested) ([2]; 150 mg/kg, 6.00 h): 4/4; MES (number of animal protected/number of animal tested) ([2]; 150 mg/kg, 8.00 h): 4/4; MES (number of animal protected/number of animal tested) [5, 7]: 1/3; MES [5, 8]: ++ (++ = activity or toxicity at 100 mg/kg)
Cl.Nc1nc(NC(=O)OCCSSCCNC(=O)c2cccnc2)nnc1-c1cccc(Cl)c1Cl [I-CA-MPD25] | 0/4 | 3/4 | 4/4 | 2/4 | - (- = no activity or no toxicity at 300 mg/kg) | - (- = no activity or no toxicity at 300 mg/kg) | no or mild toxicity |  | - (- = no activity or no toxicity at 300 mg/kg) | active in MES | 2/3 | (1/1) | 1/1 | - (- = no activity or no toxicity at 300 mg/kg) | + (+ = activity or toxicity at 300 mg/kg) |  | 
CCOC(=O)CC1(CNC(=O)OCCSSCCO[N+](=O)[O-])CCCCC1 [I-A1-NOPD1] |  |  |  |  |  | - (- = no activity or no toxicity at 300 mg/kg) |  | 4/4 | - (- = no activity or no toxicity at 300 mg/kg) |  |  | 1/1 |  |  | + (+ = activity or toxicity at 300 mg/kg) | - (- = no activity or no toxicity at 300 mg/kg) | ScMET (number of animal protected/number of animal tested) ([3]; 0.5 h): 1/1; MES (number of animal protected/number of animal tested) ([5]; 100 mg/kg (++), 0.25 hours after dosing): (1/3)^k; MES ([5]; at 0.25 hours after dosing (footnote k)): ++ (++ = activity or toxicity at 100 mg/kg)
CS(=O)(=O)NC(=O)OCCSSCCOC(=O)Nc1nnc(-c2cccc(Cl)c2Cl)c(N)n1 [I-A1-PD15] | 0/4 | 1/4 | 3/4 | 4/4 | - (- = no activity or no toxicity at 300 mg/kg) | - (- = no activity or no toxicity at 300 mg/kg) | no or mild toxicity |  | - (- = no activity or no toxicity at 300 mg/kg) | active in MES | 2/3 | (1/1) | 1/1 | - (- = no activity or no toxicity at 300 mg/kg) | + (+ = activity or toxicity at 300 mg/kg) |  | 
CCOC(=O)CC1(CNC(=O)OCCSSCCOC(=O)NC(=O)[C@H](CC)N2CCCC2=O)CCCCC1 [I-AA-MPD13] |  |  |  |  | + (+ = activity or toxicity at 300 mg/kg) | - (- = no activity or no toxicity at 300 mg/kg) |  | 4/4 | - (- = no activity or no toxicity at 300 mg/kg) |  |  |  |  | + (+ = activity or toxicity at 300 mg/kg) | - (- = no activity or no toxicity at 300 mg/kg) | - (- = no activity or no toxicity at 300 mg/kg) | ScMET (number of animal protected/number of animal tested) ([3]; 0.5 h): 1/1
Nc1nc(NC(=O)OCCSSCCOC(=O)c2cccnc2)nnc1-c1cccc(Cl)c1Cl [I-CA-MPD24] | 0/4 | 2/4 | 3/4 | 4/4 | - (- = no activity or no toxicity at 300 mg/kg) |  | non-toxic; also recorded: no or mild toxicity |  | - (- = no activity or no toxicity at 300 mg/kg) | active in both MES and scMET models | 3/3 |  |  | - (- = no activity or no toxicity at 300 mg/kg) | - (- = no activity or no toxicity at 300 mg/kg) | ++ (++ = activity or toxicity at 100 mg/kg) | activity in scMET (Test 1, in words) [3]: active in both MES and scMET models; ScMET (number of animal protected/number of animal tested) ([3]; 4.0 h): (1/1)^l; MES (number of animal protected/number of animal tested) [5, 7]: 3/3; MES (number of animal protected/number of animal tested) ([5]; 100 mg/kg (++), 6 hours after dosing): (3/3)^m; MES [5, 8]: ++ (++ = activity or toxicity at 100 mg/kg); MES ([5]; at 6 hours after dosing (footnotes g, m)): ++ (++ = activity or toxicity at 100 mg/kg)
CC(=O)Oc1ccccc1C(=O)O [Aspirin] |  |  |  |  |  |  |  |  |  |  |  |  |  |  |  |  | haemorrhagic lesions (area), Mean ± S.E.M. ([6]; rat, in vivo, po, 100 mg/kg): 2.7 ± 0.9 mm^2; ulcer development (in words) ([6]; rat, in vivo, po, 100 mg/kg): severe haemorrhagic lesions; gastrointestinal safety (summary in words) ([6]; rats, oral, high equivalent doses compared to aspirin): caused severe ulcers
CCOC(=O)CC1(CNC(=O)OCCSSCC(=O)OC)CCCCC1 [I-A1-PD5] |  |  |  |  | + (+ = activity or toxicity at 300 mg/kg) | - (- = no activity or no toxicity at 300 mg/kg) | no or mild toxicity | 3/4 | - (- = no activity or no toxicity at 300 mg/kg) | active in MES |  |  |  | + (+ = activity or toxicity at 300 mg/kg) | + (+ = activity or toxicity at 300 mg/kg) | - (- = no activity or no toxicity at 300 mg/kg) | 
